Laboratory results as given in patent US10130713B2, “Cocrystalline DHEA formulations” (University of Houston System, priority 2013, dated 2018).
Values after ≈ are worked out from the molar mass of the structure shown. Like-named read-outs stand apart in the source and are kept apart here.

How the values were obtained:
Format in all cases: physicochemical
[1] = Dissolution of formulation slurries (Plasdone S630 + Polysorbate 80) in simulated intestinal fluid; conditions: simulated intestinal fluid plus aqueous formulation slurry, aqueous with cosolvent or surfactant or cyclodextrin, thermodynamic from solid; SIF plus water containing 2% Plasdone S630 and 1% Polysorbate 80, 37° C.; read-out: equilibrium solubility in formulation/SIF system
Method: Simulated intestinal fluid (SIF) was prepared by dissolving 21.6 mg of sodium hydroxide, 168.8 mg of sodium dihydrogen phosphate dihydrate, 311.6 mg of sodium chloride, and 113.0 mg of SIF Powder Original (Biorelevant) in 50 mL of water. A 100-mL, round-bottom flask was charged with 10 mL of SIF and a stir bar. The flask was placed in a 37° C. bath and stirring was begun. A 20-mL vial was charged with 10 mL of water and placed in a 37° C. bath.
Based on the inhibitory effects found in the excipient screen, further studies with formulation slurries containing the cocrystals suspended in water were used, in which both Plasdone S-630 and Polysorbate 80 are dissolved. The formulation recipe and dissolution procedure are: bring 5 mL of simulated intestinal fluid (SIF) to 37° C., add about 6 mg of a cocrystal into 5 mL of water (at 37° C.) containing 2% Plasdone S630 and 1% Polysorbate 80 to give the formulation slurry, add the formulation slurry to the SIF, pull samples, filter, and analyze by HPLC. A control experiment was carried out in which DHEA was used instead of a cocrystal.
For FIGS. 44 and 45, to the […]-vial of SIF (20-mL vial was charged with 10 mL of water and placed in a 37° C. bath) 12.1 mg of DHEA (from sample TL876) was added. The vial was capped and shaken, and the resulting slurry was poured into the round-bottom flask. […] The supernatants were analyzed by HPLC. […]

[2] = Dissolution study with DHEA concentration measured by HPLC over time; conditions: for solubility: aqueous dissolution study (pH 6.8 buffer, ambient temperature)
Method: High performance liquid chromatography (HPLC) analyses were carried out on an Agilent 1100 series instrument equipped with a UV detector using the following materials and operating parameters:
Calibration data used previously and standards analyzed prior to the samples were used to generate concentrations from peak areas.
At selected time points (10 minutes, 30 minutes, 1 hour, 2 hours, and 5 hours) the slurry was centrifuged and 700 μL of the liquid phase was withdrawn and passed through a 0.5 μm PTFE filter. The filtrate was concentrated in a purge of dry air until all the water evaporated, leaving a solid that was analyzed by HPLC. […] The pH of the filtrate was measured using a Thermo Scientific Orion 3 Star pH meter. The collected solid was analyzed by XRPD. […]
Further dissolution studies with concentration measurements at 10 minutes, 30 minutes, 1 hour, 2 hours, 5 hours, and overnight were conducted. Three such experiments were carried out, using DHEA polymorph form I (FI), the DHEA/D-fructose cocrystal, and the DHEA/glutaric acid cocrystal. […] All of the data are summarized in FIG. 10 through FIG. 14 and the data are plotted in FIG. 15 through FIG. 19.
Note that in each of the plots shown in […] the results of two experiments (time points at <10 min and time points at >10 minutes) are shown on one graph. In order to better visualize the curves, the x axes are in logarithmic scales (FIGS. 15-17). The tables shown in FIGS. 12 and 13 were derived from single experiments having time points at <10 minutes. The x axes on those plots are in linear scales (FIGS. 18 and 19).

[3] = Slurry of DHEA in simulated intestinal fluid, solid form by XRPD; conditions: about 3 hrs at room temperature, XRPD 3171

`C[C@]12CC[C@H](O)CC1=CC[C@@H]1[C@@H]2CC[C@]2(C)C(=O)CC[C@@H]12` [DHEA, Dehydroepiandrosterone] showed a solubility thermodynamic [1] of 120 to 130 µg/mL.
With `C[C@]12CC[C@H](O)CC1=CC[C@@H]1[C@@H]2CC[C@]2(C)C(=O)CC[C@@H]12` [DHEA hydrate S1, Dehydroepiandrosterone] the solubility ([2]; listed as DHEA (form S1)) was “about 17 μg/mL” and the solubility thermodynamic ([2]; pH 6.8 phosphate buffer, pH 6.8, aqueous buffer, thermodynamic from solid, most stable form in the presence of water, read-out: equilibrium solubility) was 17 µg/mL.
For `C[C@]12CC[C@H](O)CC1=CC[C@@H]1[C@@H]2CC[C@]2(C)C(=O)CC[C@@H]12` [DHEA polymorph form I (FI), Dehydroepiandrosterone], the “change in concentration of DHEA with time” value ([2]; 10 minutes, 30 minutes, 1 hour, 2 hours, 5 hours, overnight) was “no change in concentration of DHEA with time”, the “remaining solids after dissolution experiment” value ([2]; after overnight experiment) was “DHEA form S2 (monohydrate)” and the “time for transformation of anhydrate to monohydrate to be complete” value ([2]; aqueous dissolution study) was “about 2 hours”. For the same molecule, the solubility ([2]; pH 6.8 phosphate buffer, pH 6.8, aqueous buffer, thermodynamic from solid, read-out: solubility) was about 30 µg/mL (≈ 104 µM) and the “solid form after slurrying in SIF” value [3] was “mostly the hydrate S1 form”.
